In US12076312B2, “Repurposing anti-androgen therapy for COVID-19 and immunotherapy” (Wisconsin Alumni Research Foundation, priority 2021, dated 2024):

How the values were obtained:
[1] = molecular target: mutant AR forms (F877L mutation) (Homo sapiens, UniProt P10275, F877L); conditions: F877L mutation that confers resistance to enzalutamide; cited from earlier work
[2] = molecular target: AR (Homo sapiens, UniProt P10275); conditions: cited from earlier work
[3] = system: AR mRNA in A549 lung cancer cells; experiment: AR mRNA level by qRT-PCR; format: cell-based
Description: (§1) From two independent biological experiments with 3 replicates (n=6), RNA samples were collected with TRIzol reagent (Invitrogen) and isolated using RNeasy Mini Kit (Qiagen). RNA concentrations were measured using A260 nm/A280 nm spectroscopy on the Nanodrop ND-1000 (Thermo-scientific). For each RNA sample, 1000 ng of RNA was reversed transcripted into first-strand cDNA using the High-Capacity RNA-to-cDNA Kit (Applied Biosystems).
(§2) Three independent biological replicates of mRNA samples were collected for each condition, and three technical replicates were run for each sample in qRT-PCR. The fold changes and p-values were calculated with the ΔΔCt method32 and two-sample t-test, respectively. Ubiquitin C (UBC) was used as the housekeeping gene for normalization.

[4] = system: AR mRNA in NCI-H2228 lung cancer cells; experiment: AR mRNA level by qRT-PCR; format: cell-based
Description: as §1, §2

[5] = system: AR protein translocation in H2228; experiment: AR immunofluorescent imaging, nuclear translocation; conditions: H2228, 1 nM R1881, 24 h
Description: (§4) After incubating in blocking buffer (5% normal goat serum and 0.2% fish skin gelatin in 0.2% Tween/PBS) for 1 hour at room temperature, the cells were stained with primary antibodies overnight at 4° C. […] Immunofluorescence images were captured on Leica TCS WLL SP8 Laser scanning confocal microscopy (Leica Microsystems) using 63× oil immersion objective (Scale bar: 10 μm). Multiple images were taken at different fields of coverslip to obtain at least 100 cells for AR quantification. The sum of pixel intensities of AR signal within the nucleus and cytoplasm was quantified using a custom MATLAB program (R2017b, MathWorks). Briefly, the program utilized the actin and DRAQ5 channels to create masks for the cytoplasm and nucleus regions, respectively. These masks were then used to determine the AR signal within cytoplasm and nucleus, and the nucleus-to-cytoplasm ratio of AR signal was calculated by dividing the AR signal inside the nucleus by the AR signal within the entire cell (nucleus and cytoplasm).

[6] = system: AR protein translocation in A549; experiment: as above; conditions: A549, 1 nM R1881, 24 h
Description: as §4

[7] = system: AR responsive genes in A549 cells; experiment: AR signaling gene panel qRT-PCR; format: cell-based; conditions: A549, enzalutamide 5 μM, 24 h
Description: as §1
(§3) Changes in expression levels of AR signaling genes were screened using Bio-Rad's PrimePCR pathway 384-well panel: Androgen Receptor Signaling SAB target list (Cat #10047228) and Androgen Receptor Nuclear Signaling (Cat #10025068). […] Two independent biological replicates of mRNA samples were collected for each condition, and one reaction was run for each sample. If necessary, additional technical replicates were run to rule out any outlier. Relative mRNA expressions and p-values were calculated using the ΔΔCt method and two-sample t-test in Bio-Rad CFX Maestro program (version: 4.0.2325.0418). […] The stabilities of housekeeping genes were checked using the geNorm algorithm provided in CFX Maestro. M values of all housekeeping genes used in this study are less than 0.5, which is considered ideal. Log 2-transformed expression levels and −log 10 (p-value) of all treatment groups were plotted as Bubble and Color map graph in the Origin 2020 software.

[8] = system: AR responsive genes in NCI-H2228 cells; experiment: AR signaling gene panel qRT-PCR; format: cell-based; conditions: NCI-H2228, enzalutamide 5 μM, 24 h (FIG. 2C)
Description: as §1, §3

AR, sequence (P10275 whole entry): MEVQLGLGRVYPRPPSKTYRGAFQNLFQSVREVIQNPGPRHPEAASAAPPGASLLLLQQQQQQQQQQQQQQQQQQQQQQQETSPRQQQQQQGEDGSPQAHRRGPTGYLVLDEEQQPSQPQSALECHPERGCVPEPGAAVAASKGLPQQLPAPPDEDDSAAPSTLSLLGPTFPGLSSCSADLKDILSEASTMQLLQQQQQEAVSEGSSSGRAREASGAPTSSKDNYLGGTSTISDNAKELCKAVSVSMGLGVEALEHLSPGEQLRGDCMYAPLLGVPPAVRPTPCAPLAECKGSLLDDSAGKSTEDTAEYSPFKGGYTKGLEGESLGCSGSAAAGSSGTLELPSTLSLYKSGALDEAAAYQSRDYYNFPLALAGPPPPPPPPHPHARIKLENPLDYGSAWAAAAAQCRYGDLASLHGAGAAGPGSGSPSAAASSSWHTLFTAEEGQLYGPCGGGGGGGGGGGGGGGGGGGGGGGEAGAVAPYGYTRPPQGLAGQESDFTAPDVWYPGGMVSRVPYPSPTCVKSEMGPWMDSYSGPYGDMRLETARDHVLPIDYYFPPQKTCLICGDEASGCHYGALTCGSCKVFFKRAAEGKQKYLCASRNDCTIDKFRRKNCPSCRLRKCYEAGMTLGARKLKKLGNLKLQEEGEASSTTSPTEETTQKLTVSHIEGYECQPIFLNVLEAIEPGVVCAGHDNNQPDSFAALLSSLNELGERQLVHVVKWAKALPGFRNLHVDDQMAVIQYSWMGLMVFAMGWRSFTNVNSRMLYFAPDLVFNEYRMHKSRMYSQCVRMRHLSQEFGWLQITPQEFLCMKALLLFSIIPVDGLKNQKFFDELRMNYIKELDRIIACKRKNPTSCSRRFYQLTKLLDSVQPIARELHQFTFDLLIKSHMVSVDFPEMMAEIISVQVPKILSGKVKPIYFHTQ
mutant AR forms (F877L mutation), sequence (P10275 whole entry F877L): as the sequence (P10275 whole entry) above, with F877L counted along it

CC(O)c1cc(C(=O)N[C@@H](C)Cn2ccc(-c3ccc(C#N)c(Cl)c3)n2)[nH]n1 (stereo partly shown) [Darolutamide]
activity against mutant AR forms [1]: Remains antagonistic | greater affinity for AR compared with enzalutamide [2]: 8 fold

C[C@]1(O)CC[C@H]2[C@@H]3CCC4=CC(=O)CCC4=C3C=C[C@@]21C [R1881, Metribolone]
AR mRNA level ([3]; male A549, R1881 1 nM, 2, 4, 8 and 24 h vs control): temporally downregulated | AR expression ([4]; female H2228, androgen (R1881) stimulation): minimal changes | AR transport to the nucleus [5]: efficiently transported to the nucleus | AR transport to the nucleus [6]: efficiently transported to the nucleus

CNC(=O)c1ccc(N2C(=S)N(c3ccc(C#N)c(C(F)(F)F)c3)C(=O)C2(C)C)cc1F [enzalutamide]
AR expression ([3]; A549, enzalutamide without ligand stimulation): increased AR expression | R1881-induced downregulation of AR expression ([3]; male A549, pre-treatment with enzalutamide 30 min before 1 nM R1881): blocked | AR expression ([4]; H2228, enzalutamide without ligand stimulation): increased AR expression | FOS expression log 2FC ([7]; p-value=0.008): −1.627 log 2FC | IL6 expression log 2FC ([7]; p-value=0.023): −2.41 log 2FC | MAF expression log 2FC ([7]; p-value=0.035): 2.44 log 2FC | IL6 expression [8]: significantly upregulated
